The numbers were not newly measured in publication PMC3009454 (Bioconjugate chemistry, 2009), which cites them from elsewhere.

For the data set, the system named is primary melanoma and pulmonary melanoma metastases. Conditions: small animal SPECT/CT.

Consider “^111In-1,4,7,10-tetraazacyclododecane-1,4,7,10-tetraacetic acid-c[Lys-Nle-Glu-His-DPhe-Arg-Trp-Gly-Arg-Pro-Val-Asp] (sidechain bridge or staple) [^111In-DOTA-GlyGlu-CycMSH]”, for which the “SPECT/CT visualization of primary melanoma and pulmonary melanoma metastases” value is “clearly visualized”.
